Measurements as given in patent US20110293745A1, “AURORA KINASE INHIBITORS” (SUNESIS PHARMACEUTICALS, INC., priority 2008, published 2011).

Legend:
[1] = Clinical serum concentration versus target threshold; format: in vivo, human; details: patients; for Duration of target serum concentration: target serum concentration 1 μM
[2] = tested on: HCT 116 cells; assay: Flow cytometry, DNA content (propidium iodide); format: cell-based, human; details: 36 nM, 16 hours
Method: HCT 116 cells were seeded at 10,000 cells per well in 12-well plates and cells were incubated 24 hr at 37° C. […] After 16 hrs, media was aspirated and placed in a labeled collection tube, cells were trypsinized with 100 μL trypsin for 5 min at room temperature, quenched with fresh media, and placed in the collection tube with their appropriate media aspirate. Cells were spun at 2000 RPM for 5 min, supernatant was aspirated, and cells were re-suspended in 50 μl, 1× phosphate buffered saline (PBS) and 200 μL 100% methanol. Samples were then placed at −20° C. Cells fixed in methanol were spun at 2000 RPM for 5 min, supernatant was removed and cells were washed with 500 μL 0.1% bovine serum albumin (BSA) in PBS. Cells were re-suspended in 100 μL propidium iodide (PI) staining solution [prepared from 10 μg/mL PI (Sigma #P4864), 100 μg/mL RNase (Sigma #R4642) in PBS] and incubated at 37° C. for 1 hr. Cell populations were then analyzed by flow cytometry on Fluorescence-Activated Cell Sorter (FACS) instrumentation (FACSCalibur; Becton-Dickinson) according to common techniques. The distribution of cells in the various phases of cell cycle was assessed by propidium iodide (PI) staining of DNA. The total intensity of PI was considered to reflect the DNA content of cells.

[3] = target: Aurora C (Homo sapiens, UniProt Q9UQB9); assay: HTRF-based biochemical IC50 assay
Source text: […]. A biotin-conjugated histone H3 peptide (Upstate Biotechnology) was used as a substrate.

[4] = tested on: HT-29; assay: cells; details: Homo sapiens, HT-29, 96 h, read-out: BrdU IC50
Method: Cellular proliferation was assessed using the Cell Proliferation ELISA, bromodeoxyuridine (BrdU) kit (Roche) including reagents, according to the kit protocol.

[5] = tested on: variety of mice xenograft models representing a range of tissue types; assay: In vivo efficacy across xenograft models (summary); details: dose-dependent, well tolerated doses
[6] = target: T1, Axl (Homo sapiens, UniProt P30530); assay: Radiometric kinase assay (Upstate panel); format: biochemical
T1 construct: purchased Upstate Biotechnology, Dundee, UK

[7] = tested on: pHH3 in A2780; assay: cells; details: Homo sapiens, A2780, 1 h, read-out: pHH3 IC50
Method: (§1) For analysis of pHH3 on adherent cells (HCT116, A375, and H1299), tumor cells were grown in 96-well tissue culture plates overnight at 37° C. […] Cells were fixed, permeabilized and exposed to anti-pHH3 antibody and analyzed for pHH3 staining. Data were fit to an IC50 equation. For analysis of pHH3 on nonadherent cells or cells with irregular morphology (A2780, Calu-6, and HT-29), tumor cells were seeded in 6-well tissue culture plates overnight at 37° C. […] Cells were trypsinized, collected, lysed, and analyzed by immunoblotting.

[8] = tested on: pHH3 in Calu-6; assay: cells; details: Homo sapiens, Calu-6, 1 h, read-out: pHH3 IC50
Method: as §1

[9] = tested on: pHH3 in H1299; assay: cells; details: Homo sapiens, NCI-H1299, 1 h, read-out: pHH3 IC50
Method: as §1

[10] = tested on: pHH3 in A375; assay: cells; details: Homo sapiens, A-375, 1 h, read-out: pHH3 IC50
Method: as §1

[11] = tested on: A375 melanoma xenograft; assay: In vivo efficacy, mouse xenograft
Method: (§2) Percent TGI is then calculated with the following equation: […]
(§3) Time To Endpoint (TTE) was calculated for each individual animal to reach the predetermined study end point where the tumor volume becomes 1200 mm^3 or 10% of body weight or a greater than 20% body weight loss for two sequential measurements. The TTE is calculated and the median value is recorded for the group. Tumor Growth Delay (TGD) is then calculated with the following equation: […]
(§4) A375 melanoma tumor fragments (1 mm^3) were implanted subcutaneously in the right hind flank of mice. After 9 days, when tumors reached an average volume of approximately 110 mm^3, animals were weighed, randomized by tumor volume (l×w×h×0.52), and assigned to the various study groups before initial dosing.

[12] = tested on: HCT 116 colon cancer xenograft; assay: In vivo efficacy, mouse xenograft
[13] = tested on: phospho-histone H3 in HCT 116 cells; assay: Phospho-histone H3 staining (High Content Screening); format: cell-based; details: Homo sapiens
Method: Analysis of phospho-histone H3 (pHH3) levels was performed on adherent cells using high-content screening methodology. […]. This series was diluted 1000× in RPMI-1640 containing 10% FBS (1× treatment concentration: 10 μM-0.0002 μM). […].
Then, medium was aspirated and cells were incubated in 100 μL/well 4% formaldehyde for 15 min at room temperature.
[…]. […] Data were fit to an IC50 equation. […]. Cells were trypsinized, collected, lysed, and analyzed by immunoblotting.

[14] = tested on: Calu 6 lung carcinoma xenograft; assay: In vivo efficacy, mouse xenograft; details: CALU6 (NSCLC)
Method: as §2, §3
as §4, with “Calu 6 lung carcinoma cells [200 μL of a 5×10^7 cells/ml suspension (1:1 DPBS with cells:Matrigel)]” for “A375 melanoma tumor fragments (1 mm^3)”, “11” for “9”, “150” for “110”

Sequence of Aurora C (Q9UQB9 whole entry): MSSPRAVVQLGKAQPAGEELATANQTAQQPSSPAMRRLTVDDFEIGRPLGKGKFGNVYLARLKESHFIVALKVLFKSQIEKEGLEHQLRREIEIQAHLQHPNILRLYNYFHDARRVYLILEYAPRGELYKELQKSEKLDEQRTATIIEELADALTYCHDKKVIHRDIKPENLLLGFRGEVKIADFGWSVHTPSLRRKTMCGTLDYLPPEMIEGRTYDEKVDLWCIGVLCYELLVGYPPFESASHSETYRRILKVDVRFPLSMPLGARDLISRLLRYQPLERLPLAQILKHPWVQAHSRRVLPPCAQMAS
T1 sequence (P30530 26-894): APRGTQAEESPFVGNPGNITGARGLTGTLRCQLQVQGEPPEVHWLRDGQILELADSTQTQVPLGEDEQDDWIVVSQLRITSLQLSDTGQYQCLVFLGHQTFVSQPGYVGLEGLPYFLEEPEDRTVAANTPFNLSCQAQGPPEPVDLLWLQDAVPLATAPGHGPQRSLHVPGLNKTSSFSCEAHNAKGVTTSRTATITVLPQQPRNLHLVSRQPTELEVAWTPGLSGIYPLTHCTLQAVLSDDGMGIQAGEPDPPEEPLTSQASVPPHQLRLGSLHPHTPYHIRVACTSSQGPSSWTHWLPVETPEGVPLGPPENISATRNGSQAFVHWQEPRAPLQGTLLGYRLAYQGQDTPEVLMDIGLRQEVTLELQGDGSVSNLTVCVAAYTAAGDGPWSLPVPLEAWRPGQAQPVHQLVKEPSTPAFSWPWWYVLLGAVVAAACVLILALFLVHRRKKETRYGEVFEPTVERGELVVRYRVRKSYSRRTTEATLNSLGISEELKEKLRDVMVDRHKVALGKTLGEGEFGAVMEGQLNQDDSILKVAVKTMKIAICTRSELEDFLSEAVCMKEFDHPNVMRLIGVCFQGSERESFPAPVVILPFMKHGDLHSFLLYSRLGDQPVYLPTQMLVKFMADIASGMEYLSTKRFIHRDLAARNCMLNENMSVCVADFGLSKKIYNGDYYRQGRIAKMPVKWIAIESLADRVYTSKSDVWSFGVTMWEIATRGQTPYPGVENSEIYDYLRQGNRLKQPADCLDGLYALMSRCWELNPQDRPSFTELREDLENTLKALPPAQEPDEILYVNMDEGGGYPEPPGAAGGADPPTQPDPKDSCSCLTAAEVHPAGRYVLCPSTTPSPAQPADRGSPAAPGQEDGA

O=C(Nc1cccc(Cl)c1)Nc1ncc(CCNc2ncnc3ccsc23)s1 [Compound 2, 1-(3-chlorophenyl)-3-{5-[2-(thieno[3,2-d]pyrimidin-4-ylamino)ethyl]thiazol-2-yl}-urea]
serum levels versus preclinical target inhibitory levels ([1]; 240 mg/m^2 dose level): exceeded the preclinical target inhibitory levels | minimum duration target serum concentration was achieved ([1]; all dose levels): ≥ 4 h | Duration of target serum concentration ([1]; 3-hour infusion of Compound 1, 30 mg/m^2): 4 h | Duration of target serum concentration ([1]; 3-hour infusion of Compound 1, 60 mg/m^2): 8 h | Duration of target serum concentration ([1]; 3-hour infusion of Compound 1, 120 mg/m^2): 10 h | Duration of target serum concentration ([1]; 3-hour infusion of Compound 1, 240 mg/m^2): 20 h | Duration of target serum concentration ([1]; 3-hour infusion of Compound 1, 480 mg/m^2): 20 h

CS(=O)(=O)O.O=C(Nc1cccc(Cl)c1)Nc1ncc(CCNc2ncnc3ccsc23)s1 [Compound 1, 1-(3-chlorophenyl)-3-{5-[2-(thieno[3,2-d]pyrimidin-4-ylamino)ethyl]thiazo}-urea]
DNA content of cells [2]: predominantly 4N and 8N DNA content | IC50 values, Aurora kinase C (summary in words) [3]: low nanomolar range | IC50 ([3]; HTRF, N 1): 0.0034 µM | IC50 [4]: 24.4 nM | tumor growth inhibition [5]: 58-99% | IC50 [6]: 0.084 µM | IC50 [7]: 150 nM | IC50 [8]: 60 nM | IC50 [9]: 58 nM | IC50 [10]: 15 nM | % TGI ([11]; 42.5 mg/kg biw × 3): 1.2% | TGD ([11]; 42.5 mg/kg biw × 3): 0 days | % TGI ([11]; 85 mg/kg biw × 3): 20.6% | TGD ([11]; 85 mg/kg biw × 3): 0 days | % TGI ([11]; 170 mg/kg biw × 3): 65.4% | TGD ([11]; 170 mg/kg biw × 3): 7.4 days | % TGI (Day 36) ([12]; 100 mg/kg, qd × 5, 9 d off × 2): 91.6% | % TGI (Day 36) ([12]; 125 mg/kg, Qw × 3): 79.8% | % TGI (Day 36) ([12]; 150 mg/kg, biw × 3): 95.6% | EC50 ([13]; HCT 116, 1 hour treatment, read-out: EC50 of the reduction of pHH3): ~9 nM | IC50 ([13]; HCT 116, 1 hour, pHH3 staining): 9 nM | % TGI ([14]; 42.5 mg/kg biw × 3): 23.5% | % TGI ([14]; 85 mg/kg biw × 3): 28.7% | % TGI ([14]; 170 mg/kg biw × 3): 91.4%
